The values below come from patent US20090004185A1, “AMINO-SUBSTITUTED QUINAZOLINE DERIVATIVES AS INHIBITORS OF BETA-CATENIN/TCF-4 PATHWAY AND CANCER TREATMENT AGENTS” (WYETH, priority 2007, published 2009).

In general, IC50 refers to the concentration that gives 50% inhibition.

The subject of one assay is β-catenin/Tcf-4. In words: cells. The format is cell-based. Conditions: 24 hours of incubation with compound, ratio Firefly/Renilla luciferase. An excerpt: Background cell line: SW480 colorectal carcinoma DNA constructs:
1) Tcf-4-Luc: Tcf-4 binding sites driving Firefly Luciferase in the pGL3 vector—to measure the activity of β-catenin/Tcf-4;
(§1) 2) SV40-Luc: SV40 binding site driving Firefly Luciferase in the pGL3 vector—as a control for non-specific inhibitors; and
(§2) 3) SV40-R-Luc: SV40 binding site driving Renilla Luciferase in the pGL3 vector—as an internal control for cell number and toxicity.
This screen uses 3 cell lines derived from SW480 and selected to contain the above luciferase reporters integrated into their chromosomes as follows: […]
(§3) Cells: Tcf22C11 and SV5A8 were grown in the presence of 500 μg/ml G418 and Tcf 33.13 was grown in the presence of 500 μg/ml G418+125 μg/ml Zeocin to maintain the integrated reporters. The cells were trypsinized and plated at 1×10^4 cells/well in opaque 96 well plates.
The compounds were diluted as follows: The compounds were stored frozen in dimethyl sulfoxide (DMSO) at […]. Compounds were initially titrated in DMSO to make a 1000×DMSO stock solution. Compounds were then diluted 1:25 into media/DMSO (DMEM+10% FBS+9% DMSO). Using the Biomek Multimek, the diluted compounds were mixed well and immediately added to the plated cells in a 1:40 dilution. The final concentration of DMSO in the assay plates was 0.316% DMSO.
(§4) Assay Readout: The luciferase signal was detected using a luciferase detection kit from Promega. Until December 2003, Promega's Dual-Luciferase® Reporter (DLR™) Assay System was used to detect luciferase activity. Briefly, after 24 hours of incubation with compound, culture media was removed by aspiration and 20 ul of passive lysis buffer (Promega) per well was added. The plates were shaken for 15 min. Firefly substrate was then added and the resulting luminescence was immediately read on a CCD camera imaging device or a luminometer. After quantifying the firefly luminescence, the reaction was quenched, and the Renilla luciferase reaction was initiated simultaneously by adding Stop & Glo® Reagent to the same sample. Renilla luciferase was then quantified using the CCD camera or luminometer.
Promega's Dual-Glo™ Luciferase Assay System can be used for luciferase detection. […] Briefly, after 24 hours of incubation with compound, culture media was removed by aspiration and 75 ul of fresh medium was added. Add 75 ul of Dual-Glo Luciferase Reagent (Promega) to each well and mix by shaking for 10 minutes on a plate shaker. Then, measure the firefly luminescence on a CCD camera imaging device or a luminometer. After quantifying the firefly luminescence, add 75 ul of Dual-Glo Stop & Glo Reagent (Promega) to each well and mix for 10 minutes. Renilla luciferase was then quantified using the CCD camera or luminometer.
(§5) This assay was meant to confirm primary leads and determine IC50s. Compounds were tested at titrated dilutions. The raw data for this assay was reported in protocol 2463-B. Protocol 2463-C contains the IC50 calculations based on the raw data. The data calculations were done as follows:
(§6) The data was expressed as % of control for both Firefly and Renilla Luciferase. The ratio of FF/Renilla (F/R) was then calculated and averaged between duplicate plates. The data was then plotted using LSW Data Analysis in Microsoft Excel. IC50s were determined by plotting the data in the LSW Data Analysis program using model 33. The IC50s (nM) for all three cell lines were reported.

Another assay has as its system SV40-Luc. In words: SV40-Luc control luciferase reporter assay, SV 5A8 cell line (SV40-Luc and SV40-R-Luc), control for non-specific inhibitors. The format is cell-based, human. The note with it: SV 5A8 cells derived from SW480, 24 hours of incubation with compound, ratio Firefly/Renilla luciferase.
Excerpt: Background cell line: SW480 colorectal carcinoma DNA constructs: […]
as §1, §2
This screen uses 3 cell lines derived from SW480 and selected to contain the above luciferase reporters integrated into their chromosomes as follows:
SV 5A8—SV40-Luc and SV40-R-Luc
as §3
Compounds: 20-24 hours after cell plating, compounds were added at titrated concentrations between […]. The compounds were diluted as follows: The compounds were stored frozen in dimethyl sulfoxide (DMSO) at […]. Compounds were initially titrated in DMSO to make a 1000×DMSO stock solution. Compounds were then diluted 1:25 into media/DMSO (DMEM+10% FBS+9% DMSO). Using the Biomek Multimek, the diluted compounds were mixed well and immediately added to the plated cells in a 1:40 dilution. The final concentration of DMSO in the assay plates was 0.316% DMSO.
as §4
Promega's Dual-Glo™ Luciferase Assay System can be used for luciferase detection. It was similar to the DLR Assay, however, unlike the DLR which has to be read immediately due to decaying signal, the signal in the Dual-Glo™ Luciferase Assay was stable for up to 2 hours. Briefly, after 24 hours of incubation with compound, culture media was removed by aspiration and 75 ul of fresh medium was added. Add 75 ul of Dual-Glo Luciferase Reagent (Promega) to each well and mix by shaking for 10 minutes on a plate shaker. Then, measure the firefly luminescence on a CCD camera imaging device or a luminometer. After quantifying the firefly luminescence, add 75 ul of Dual-Glo Stop & Glo Reagent (Promega) to each well and mix for 10 minutes. Renilla luciferase was then quantified using the CCD camera or luminometer.
as §5, §6

The mark [1] stands for this setting: Homo sapiens, SW480, 24 h, Tcf 33.13 cells derived from SW480.
Setting [2] is: Homo sapiens, Tcf22C11, 24 h, Tcf 22C11 cells derived from SW480.

Regarding “4-chloro-2-fluoro-N-[4-({[6-methyl-2-(methylamino)quinazolin-4-yl]amino}methyl)phenyl]benzamide [Example 26]”, the IC50 in the assay with β-catenin/Tcf-4 (Tcf 22C11 cells derived from SW480) is 739 nM; in the assay on β-catenin/Tcf-4 (Tcf 33.13 cells derived from SW480), 614 nM; in the assay on SV40-Luc, greater than 2780 nM. As to `CNc1nc(NCc2ccc(NC(=O)c3cccnc3Cl)cc2)c2ccccc2n1` [Example 7, 2-chloro-N-[4-({[2-(methylamino)quinazolin-4-yl]amino}methyl)phenyl]nicotinamide], the IC50 in the assay on β-catenin/Tcf-4 (setting [1]) is greater than 2980 nM; in the assay with β-catenin/Tcf-4 (setting [2]), greater than 2980 nM; with SV40-Luc (Homo sapiens, SV5A8, 24 h), greater than 23900 nM. With `CNc1nc(NCc2ccc(NC(=O)c3cc(F)c(Cl)nc3Cl)cc2)c2ccccc2n1` [Example 8, 2,6-dichloro-5-fluoro-N-[4-({[2-(methylamino)quinazolin-4-yl]amino}methyl)phenyl]nicotinamide], the IC50 in the assay on β-catenin/Tcf-4 (setting [1]) is 1530 nM; with β-catenin/Tcf-4 (setting [2]) it was 1770 nM; in the assay with SV40-Luc (Homo sapiens, SV5A8, 24 h), greater than 5300 nM.

Consider `CNc1nc(NCc2ccc(NC(=O)c3ccc(Cl)nc3)cc2)c2cc(OC)c(OC)cc2n1` [Example 9, 6-chloro-N-[4-({[6,7-dimethoxy-2-(methylamino)quinazolin-4-yl]amino}methyl)phenyl]nicotinamide], for which the IC50 in the assay on β-catenin/Tcf-4 (setting [1]) amounted to 1070 nM; in the assay with β-catenin/Tcf-4 (setting [2]) it was 888 nM; in the assay with SV40-Luc (Homo sapiens, SV5A8, 24 h) it was 1520 nM.

In the case of `CNc1nc(NCc2ccc(NC(=O)c3ccc(Cl)cc3F)cc2)c2ccccc2n1` [Example 14, 4-chloro-2-fluoro-N-[4-({[2-(methylamino)quinazolin-4-yl]amino}methyl)phenyl]benzamide], the IC50 in the assay with β-catenin/Tcf-4 (setting [1]) was 1290 nM; in the assay on β-catenin/Tcf-4 (setting [2]), 891 nM; in the assay on SV40-Luc (Homo sapiens, SV5A8, 24 h) it was greater than 2870 nM.

Regarding `CNc1nc(NCc2ccc(NC(=O)c3ccc(Cl)cc3Cl)cc2)c2ccccc2n1` [Example 16, 2,4-dichloro-N-[4-({[2-(methylamino)quinazolin-4-yl]amino}methyl)phenyl]benzamide], the 50% inhibitory concentration (IC50) in the assay with β-catenin/Tcf-4 (setting [1]) is 1820 nM; in the assay on β-catenin/Tcf-4 (setting [2]), greater than 2760 nM; with SV40-Luc (Homo sapiens, SV5A8, 24 h), greater than 2760 nM. As for `CNc1nc(NCc2ccc(NC(=O)c3ccc(F)c(C)c3)cc2)c2ccccc2n1` [Example 17, 4-fluoro-3-methyl-N-[4-({[2-(methylamino)quinazolin-4-yl]amino}methyl)phenyl]benzamide], the 50% inhibitory concentration (IC50) is greater than 6020 nM with β-catenin/Tcf-4 (setting [1]); 7510 nM in the assay on β-catenin/Tcf-4 (setting [2]); greater than 12000 nM with SV40-Luc (Homo sapiens, SV5A8, 24 h). On to `CNc1nc(NCc2ccc(NC(=O)c3ccc(Cl)cc3Cl)cc2)c2cc(C)ccc2n1` [Example 19, 2,4-dichloro-N-[4-({[6-methyl-2-(methylamino)quinazolin-4-yl]amino}methyl)phenyl]benzamide], for which the half-inhibitory concentration (IC50) in the assay with β-catenin/Tcf-4 (setting [1]) was 12800 nM; in the assay with β-catenin/Tcf-4 (setting [2]), greater than 21400 nM; in the assay with SV40-Luc (Homo sapiens, SV5A8, 24 h), greater than 21400 nM.

As for `CNc1nc(NCc2ccc(NC(=O)c3ccc(F)cc3)cc2)c2c(C)cccc2n1` [Example 192, 4-fluoro-N-[4-({[5-methyl-2-(methylamino)quinazolin-4-yl]amino}methyl)phenyl]benzamide], the 50% inhibitory concentration (IC50) with SV40-Luc (Homo sapiens, SV5A8, 24 h) was greater than 3010 nM. Still for that read-out and setting: for `CNc1nc(NCc2ccc(NC(=O)c3ccc(Cl)cc3)cc2)c2c(C)cccc2n1` [Example 193, 4-chloro-N-[4-({[5-methyl-2-(methylamino)quinazolin-4-yl]amino}methyl)phenyl]benzamide] the value was greater than 2890 nM.

Take `Cc1ccc2c(NCc3ccc(NC(=O)c4ccc(F)cc4)cc3)nc(N(C)C)nc2c1` [Example 199, N-[4-({[2-(dimethylamino)-7-methylquinazolin-4-yl]amino}methyl)phenyl]-4-fluorobenzamide]: the half-inhibitory concentration (IC50) in the assay with SV40-Luc (Homo sapiens, SV5A8, 24 h) is greater than 2910 nM.

For `Cc1ccc2c(NCc3ccc(NC(=O)c4ccc(F)cc4)cc3)nc(N3CCC3)nc2c1` [Example 202, N-(4-{[(2-azetidin-1-yl-7-methylquinazolin-4-yl)amino]methyl}phenyl)-4-fluorobenzamide], the IC50 in the assay with SV40-Luc (Homo sapiens, SV5A8, 24 h) was greater than 2830 nM. The same measure, in the same setting: as for `Cc1ccc2c(NCc3ccc(NC(=O)c4ccc(F)cc4)cc3)nc(N3CCN(C)CC3)nc2c1` [Example 204, 4-fluoro-N-[4-({[7-methyl-2-(4-methylpiperazin-1-yl)quinazolin-4-yl]amino}methyl)phenyl]benzamide], the figure is greater than 10300 nM; as for `Cc1ccc2c(NCc3ccc(NC(=O)c4ccc(F)cc4)cc3)nc(N3CCCCC3)nc2c1` [Example 206, 4-fluoro-N-(4-{[(7-methyl-2-piperidin-1-ylquinazolin-4-yl)amino]methyl}phenyl)benzamide], greater than 2660 nM.

For `Cc1ccc2c(NCc3ccc(NC(=O)c4ccc(F)cc4)cc3)nc(N3CCOCC3)nc2c1` [Example 207, 4-fluoro-N-(4-{[(7-methyl-2-morpholin-4-ylquinazolin-4-yl)amino]methyl}phenyl)benzamide], the half-inhibitory concentration (IC50) in the assay with SV40-Luc (Homo sapiens, SV5A8, 24 h) was greater than 10600 nM. For the compound `Cc1ccc2c(NCc3ccc(NC(=O)c4ccc(F)cc4)cc3)nc(N3CCNCC3)nc2c1` [Example 208, 4-fluoro-N-(4-{[(7-methyl-2-piperazin-1-ylquinazolin-4-yl)amino]methyl}phenyl)benzamide], the half-inhibitory concentration (IC50) in the assay on SV40-Luc (Homo sapiens, SV5A8, 24 h) was greater than 2660 nM. For the compound `Cc1ccc2c(NCc3ccc(NC(=O)c4ccc(F)cc4)cc3)nc(N3CCCC3)nc2c1` [Example 209, 4-fluoro-N-(4-{[(7-methyl-2-pyrrolidin-1-ylquinazolin-4-yl)amino]methyl}phenyl)benzamide], the IC50 with SV40-Luc (Homo sapiens, SV5A8, 24 h) is greater than 2740 nM. The same measure, in the same setting: for `Cc1ccc2c(NCc3ccc(NC(=O)c4ccc(F)cc4)cc3)nc(N3CCN[C@H](C)C3)nc2c1` [Example 225, 4-fluoro-N-{4-[({7-methyl-2-[(3R)-3-methylpiperazin-1-yl]quinazolin-4-yl}amino)methyl]phenyl}benzamide] the value was greater than 2580 nM; for `CNc1nc(NCc2ccc(NC(=O)c3ccc(F)cc3)cc2)c2ccc(C)cc2n1` [Example 230, 4-fluoro-N-[4-({[7-methyl-2-(methylamino)quinazolin-4-yl]amino}methyl)phenyl]benzamide], greater than 752 nM; for `Cc1ccc2c(NCc3ccc(NC(=O)c4ccc(F)cc4)cc3)nc(N3CCNC(C)(C)C3)nc2c1` [Example 236, N-[4-({[2-(3,3-dimethylpiperazin-1-yl)-7-methylquinazolin-4-yl]amino}methyl)phenyl]-4-fluorobenzamide], greater than 5010 nM. Still for that read-out and setting: as for `CNc1nc(NCc2ccc(NC(=O)c3ccc(Cl)nc3)cc2)c2ccc(C)cc2n1` [Example 264, 6-chloro-N-[4-({[7-methyl-2-(methylamino)quinazolin-4-yl]amino}methyl)phenyl]nicotinamide], the figure is greater than 1440 nM.
